Data reported in the kinase profiling compilation of Christmann-Franck et al. (2016).

Key:
Assay in all cases: KINOMEscan competition binding
Conditions in all cases: compound 10.0 µM
[1] = system: ABL1 (human), P00519 [E255K]
[2] = system: ABL1 (human), P00519 [H396P]
ACVR1B (human) = ACVR1B (human) (UniProt P36896)
AKT3 (human) = AKT3 (human) (UniProt Q9Y243)
AURKA (human) = AURKA (human) (UniProt O14965)
AXL (human) = AXL (human) (UniProt P30530)
BMPR2 (human) = BMPR2 (human) (UniProt Q13873)
CAMK2G (human) = CAMK2G (human) (UniProt Q13555)
CAMK4 (human) = CAMK4 (human) (UniProt Q16566)
CDK11B (human) = CDK11B (human) (UniProt P21127)
CDK18 (human) = CDK18 (human) (UniProt Q07002)
CDK3 (human) = CDK3 (human) (UniProt Q00526)
CDK9 (human) = CDK9 (human) (UniProt P50750)
CSNK1A1L (human) = CSNK1A1L (human) (UniProt Q8N752)
DCLK2 (human) = DCLK2 (human) (UniProt Q8N568)
DDR2 (human) = DDR2 (human) (UniProt Q16832)
EGFR (human) = EGFR (human) (UniProt P00533)
[3] = system: EGFR (human), P00533 [A750P; 747-749 del]
[4] = system: EGFR (human), P00533 [G719C; 746-750 del]
[5] = system: EGFR (human), P00533 [L858R]
EPHA7 (human) = EPHA7 (human) (UniProt Q15375)
FGR (human) = FGR (human) (UniProt P09769)
IKBKB (human) = IKBKB (human) (UniProt O14920)
ITK (human) = ITK (human) (UniProt Q08881)
MAP2K2 (human) = MAP2K2 (human) (UniProt P36507)
MAP3K9 (human) = MAP3K9 (human) (UniProt P80192)
MAPK13 (human) = MAPK13 (human) (UniProt O15264)
MAPK6 (human) = MAPK6 (human) (UniProt Q16659)
MAPKAPK2 (human) = MAPKAPK2 (human) (UniProt P49137)
MARK4 (human) = MARK4 (human) (UniProt Q96L34)
MST1R (human) = MST1R (human) (UniProt Q04912)
NEK7 (human) = NEK7 (human) (UniProt Q8TDX7)
NTRK1 (human) = NTRK1 (human) (UniProt P04629)
NTRK2 (human) = NTRK2 (human) (UniProt Q16620)
PAK2 (human) = PAK2 (human) (UniProt Q13177)
PIK3C2B (human) = PIK3C2B (human) (UniProt O00750)
PKN2 (human) = PKN2 (human) (UniProt Q16513)
PRKG2 (human) = PRKG2 (human) (UniProt Q13237)
[6] = system: RET (human), P07949 [V804M]
ROS1 (human) = ROS1 (human) (UniProt P08922)
TEC (human) = TEC (human) (UniProt P42680)
TXK (human) = TXK (human) (UniProt P42681)
TXK (human), sequence (P42681 whole entry, looked up): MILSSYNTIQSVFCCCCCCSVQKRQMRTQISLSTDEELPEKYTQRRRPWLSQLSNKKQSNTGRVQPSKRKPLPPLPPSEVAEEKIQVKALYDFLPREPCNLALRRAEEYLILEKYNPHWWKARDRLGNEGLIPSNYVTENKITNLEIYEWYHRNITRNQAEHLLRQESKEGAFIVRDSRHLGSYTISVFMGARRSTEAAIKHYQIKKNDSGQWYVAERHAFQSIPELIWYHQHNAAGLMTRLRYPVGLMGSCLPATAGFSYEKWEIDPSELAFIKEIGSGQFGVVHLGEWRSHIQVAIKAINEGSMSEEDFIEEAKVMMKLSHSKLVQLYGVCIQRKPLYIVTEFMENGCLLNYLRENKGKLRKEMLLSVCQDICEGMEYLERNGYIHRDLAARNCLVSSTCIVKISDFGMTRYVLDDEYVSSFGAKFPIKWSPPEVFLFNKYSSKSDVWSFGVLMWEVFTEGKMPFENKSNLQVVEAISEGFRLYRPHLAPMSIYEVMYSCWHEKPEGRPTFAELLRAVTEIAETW

EPHA7 (human), sequence (Q15375 whole entry, looked up): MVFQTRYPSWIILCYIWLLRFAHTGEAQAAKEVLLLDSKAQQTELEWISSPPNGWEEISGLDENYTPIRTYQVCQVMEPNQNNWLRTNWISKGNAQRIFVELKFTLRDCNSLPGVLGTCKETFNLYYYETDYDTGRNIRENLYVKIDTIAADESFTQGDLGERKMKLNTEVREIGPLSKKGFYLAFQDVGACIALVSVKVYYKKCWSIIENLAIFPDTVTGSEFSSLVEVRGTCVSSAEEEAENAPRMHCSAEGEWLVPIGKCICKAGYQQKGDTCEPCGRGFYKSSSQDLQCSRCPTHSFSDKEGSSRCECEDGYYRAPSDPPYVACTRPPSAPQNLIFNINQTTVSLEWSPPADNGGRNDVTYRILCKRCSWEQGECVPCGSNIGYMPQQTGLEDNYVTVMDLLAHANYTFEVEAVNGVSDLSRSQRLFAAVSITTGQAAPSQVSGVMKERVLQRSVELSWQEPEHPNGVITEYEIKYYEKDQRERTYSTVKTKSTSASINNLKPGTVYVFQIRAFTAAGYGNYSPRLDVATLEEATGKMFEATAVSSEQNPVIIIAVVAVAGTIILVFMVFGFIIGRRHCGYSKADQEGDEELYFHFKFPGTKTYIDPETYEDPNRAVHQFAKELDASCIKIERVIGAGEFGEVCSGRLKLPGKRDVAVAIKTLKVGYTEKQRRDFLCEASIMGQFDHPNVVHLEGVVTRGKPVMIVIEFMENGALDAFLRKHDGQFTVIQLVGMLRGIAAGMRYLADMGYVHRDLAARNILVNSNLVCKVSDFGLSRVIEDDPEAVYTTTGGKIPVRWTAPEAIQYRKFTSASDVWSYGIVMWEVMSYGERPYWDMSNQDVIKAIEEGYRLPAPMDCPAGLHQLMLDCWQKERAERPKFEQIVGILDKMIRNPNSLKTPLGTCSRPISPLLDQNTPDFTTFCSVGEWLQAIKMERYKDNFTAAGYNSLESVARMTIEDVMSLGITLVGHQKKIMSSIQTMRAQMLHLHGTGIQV
CDK18 (human), sequence (Q07002 whole entry, looked up): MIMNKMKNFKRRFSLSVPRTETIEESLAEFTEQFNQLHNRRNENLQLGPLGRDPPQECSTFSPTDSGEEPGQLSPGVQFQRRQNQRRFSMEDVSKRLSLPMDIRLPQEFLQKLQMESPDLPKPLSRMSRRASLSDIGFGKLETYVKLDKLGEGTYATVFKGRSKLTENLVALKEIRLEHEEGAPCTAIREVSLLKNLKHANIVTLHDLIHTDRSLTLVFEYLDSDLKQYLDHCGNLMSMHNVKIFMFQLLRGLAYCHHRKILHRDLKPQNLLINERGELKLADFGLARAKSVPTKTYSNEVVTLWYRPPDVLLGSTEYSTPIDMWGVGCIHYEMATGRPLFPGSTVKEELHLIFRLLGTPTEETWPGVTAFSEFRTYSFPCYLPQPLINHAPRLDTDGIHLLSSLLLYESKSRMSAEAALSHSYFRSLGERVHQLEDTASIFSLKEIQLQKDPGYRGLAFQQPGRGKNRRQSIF
TEC (human), sequence (P42680 whole entry, looked up): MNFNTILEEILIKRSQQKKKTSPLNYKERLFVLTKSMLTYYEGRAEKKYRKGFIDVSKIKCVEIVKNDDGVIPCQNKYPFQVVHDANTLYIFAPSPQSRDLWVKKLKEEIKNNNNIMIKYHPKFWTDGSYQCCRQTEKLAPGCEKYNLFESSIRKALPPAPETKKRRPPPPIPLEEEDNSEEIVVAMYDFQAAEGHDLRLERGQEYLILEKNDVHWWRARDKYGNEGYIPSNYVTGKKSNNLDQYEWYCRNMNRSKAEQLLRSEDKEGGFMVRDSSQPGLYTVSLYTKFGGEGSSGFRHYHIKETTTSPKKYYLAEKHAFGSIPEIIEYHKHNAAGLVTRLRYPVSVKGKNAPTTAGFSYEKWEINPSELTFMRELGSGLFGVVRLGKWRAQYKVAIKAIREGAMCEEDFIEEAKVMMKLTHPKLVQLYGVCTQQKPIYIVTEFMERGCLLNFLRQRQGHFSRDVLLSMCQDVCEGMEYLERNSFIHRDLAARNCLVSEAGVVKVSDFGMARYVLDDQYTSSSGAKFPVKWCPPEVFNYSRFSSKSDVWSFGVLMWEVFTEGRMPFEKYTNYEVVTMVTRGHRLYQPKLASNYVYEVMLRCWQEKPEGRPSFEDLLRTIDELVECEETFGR
AURKA (human), sequence (O14965 whole entry, looked up): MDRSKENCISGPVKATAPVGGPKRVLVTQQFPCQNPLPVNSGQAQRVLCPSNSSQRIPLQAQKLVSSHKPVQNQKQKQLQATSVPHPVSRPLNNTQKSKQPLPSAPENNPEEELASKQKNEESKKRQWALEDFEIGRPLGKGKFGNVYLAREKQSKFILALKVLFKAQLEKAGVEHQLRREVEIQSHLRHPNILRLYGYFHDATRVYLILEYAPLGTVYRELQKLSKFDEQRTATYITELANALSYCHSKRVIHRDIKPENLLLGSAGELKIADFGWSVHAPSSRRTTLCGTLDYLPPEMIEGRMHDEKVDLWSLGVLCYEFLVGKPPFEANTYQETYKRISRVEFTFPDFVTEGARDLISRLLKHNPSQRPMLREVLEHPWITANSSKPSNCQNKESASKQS
PRKG2 (human), sequence (Q13237 whole entry, looked up): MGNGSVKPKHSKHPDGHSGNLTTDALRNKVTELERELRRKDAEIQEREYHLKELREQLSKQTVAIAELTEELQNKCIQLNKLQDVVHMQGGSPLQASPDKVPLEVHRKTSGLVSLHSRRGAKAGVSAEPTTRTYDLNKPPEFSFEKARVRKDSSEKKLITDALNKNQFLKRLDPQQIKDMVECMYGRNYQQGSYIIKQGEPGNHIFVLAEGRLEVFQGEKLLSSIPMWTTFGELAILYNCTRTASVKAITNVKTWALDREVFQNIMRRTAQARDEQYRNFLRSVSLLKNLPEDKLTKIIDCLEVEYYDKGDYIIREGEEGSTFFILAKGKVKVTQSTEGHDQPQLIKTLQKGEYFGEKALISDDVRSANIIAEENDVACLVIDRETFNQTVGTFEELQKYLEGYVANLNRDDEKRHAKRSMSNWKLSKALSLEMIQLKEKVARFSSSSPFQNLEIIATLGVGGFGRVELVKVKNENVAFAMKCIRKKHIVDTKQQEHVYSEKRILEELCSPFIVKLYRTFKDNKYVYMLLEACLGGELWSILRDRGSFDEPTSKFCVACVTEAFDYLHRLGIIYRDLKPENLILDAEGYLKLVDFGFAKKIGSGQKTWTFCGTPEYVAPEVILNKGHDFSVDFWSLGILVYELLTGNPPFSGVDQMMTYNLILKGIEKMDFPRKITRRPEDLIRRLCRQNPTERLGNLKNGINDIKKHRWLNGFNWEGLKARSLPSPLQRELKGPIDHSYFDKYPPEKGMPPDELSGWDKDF
BMPR2 (human), sequence (Q13873 whole entry, looked up): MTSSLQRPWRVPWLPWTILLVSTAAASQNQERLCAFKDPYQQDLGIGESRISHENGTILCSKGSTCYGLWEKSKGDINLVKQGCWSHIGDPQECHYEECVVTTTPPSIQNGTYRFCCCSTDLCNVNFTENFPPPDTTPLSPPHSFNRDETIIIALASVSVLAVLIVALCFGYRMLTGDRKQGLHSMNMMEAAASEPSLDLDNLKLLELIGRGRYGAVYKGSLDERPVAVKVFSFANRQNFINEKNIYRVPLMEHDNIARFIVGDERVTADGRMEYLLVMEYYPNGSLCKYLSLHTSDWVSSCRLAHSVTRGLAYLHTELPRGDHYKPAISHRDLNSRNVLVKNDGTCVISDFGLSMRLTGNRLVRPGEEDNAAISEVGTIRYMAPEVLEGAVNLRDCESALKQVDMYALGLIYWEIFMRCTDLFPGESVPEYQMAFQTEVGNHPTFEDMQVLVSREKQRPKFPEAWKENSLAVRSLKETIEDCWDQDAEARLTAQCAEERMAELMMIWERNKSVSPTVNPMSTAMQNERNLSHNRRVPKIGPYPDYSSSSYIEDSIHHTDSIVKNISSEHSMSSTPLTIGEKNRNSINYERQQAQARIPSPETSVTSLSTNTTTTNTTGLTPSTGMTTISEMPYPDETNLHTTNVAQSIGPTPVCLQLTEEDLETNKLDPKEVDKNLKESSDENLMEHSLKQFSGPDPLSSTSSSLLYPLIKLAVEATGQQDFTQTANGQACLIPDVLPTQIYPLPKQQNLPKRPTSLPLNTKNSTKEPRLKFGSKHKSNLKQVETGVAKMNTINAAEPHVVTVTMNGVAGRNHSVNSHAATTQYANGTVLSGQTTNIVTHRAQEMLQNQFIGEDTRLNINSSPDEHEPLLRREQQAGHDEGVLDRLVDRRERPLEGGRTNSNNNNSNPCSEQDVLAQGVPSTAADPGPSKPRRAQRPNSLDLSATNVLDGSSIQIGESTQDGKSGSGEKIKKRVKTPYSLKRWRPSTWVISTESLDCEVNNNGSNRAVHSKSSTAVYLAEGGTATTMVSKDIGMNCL

CN1CCN(c2ccc(C(=O)Nc3ncc4c(n3)N(C)c3ccccc3C(=O)N4C)cc2)CC1
kinase still bound, per cent of control [1]: 100% | kinase still bound, per cent of control [2]: 88% | kinase still bound, per cent of control (ACVR1B (human)): 100% | kinase still bound, per cent of control (AKT3 (human)): 90% | kinase still bound, per cent of control (AURKA (human)): 96% | kinase still bound, per cent of control (AXL (human)): 100% | kinase still bound, per cent of control (BMPR2 (human)): 100% | kinase still bound, per cent of control (CAMK2G (human)): 100% | kinase still bound, per cent of control (CAMK4 (human)): 100% | kinase still bound, per cent of control (CDK11B (human)): 100% | kinase still bound, per cent of control (CDK18 (human)): 100% | kinase still bound, per cent of control (CDK3 (human)): 100% | kinase still bound, per cent of control (CDK9 (human)): 100% | kinase still bound, per cent of control (CSNK1A1L (human)): 77% | kinase still bound, per cent of control (DCLK2 (human)): 22% | kinase still bound, per cent of control (DDR2 (human)): 100% | kinase still bound, per cent of control (EGFR (human)): 100% | kinase still bound, per cent of control [3]: 100% | kinase still bound, per cent of control [4]: 100% | kinase still bound, per cent of control [5]: 100% | kinase still bound, per cent of control (EPHA7 (human)): 100% | kinase still bound, per cent of control (FGR (human)): 100% | kinase still bound, per cent of control (IKBKB (human)): 100% | kinase still bound, per cent of control (ITK (human)): 100% | kinase still bound, per cent of control (MAP2K2 (human)): 90% | kinase still bound, per cent of control (MAP3K9 (human)): 100% | kinase still bound, per cent of control (MAPK13 (human)): 90% | kinase still bound, per cent of control (MAPK6 (human)): 70% | kinase still bound, per cent of control (MAPKAPK2 (human)): 100% | kinase still bound, per cent of control (MARK4 (human)): 91% | kinase still bound, per cent of control (MST1R (human)): 93% | kinase still bound, per cent of control (NEK7 (human)): 100% | kinase still bound, per cent of control (NTRK1 (human)): 82% | kinase still bound, per cent of control (NTRK2 (human)): 69% | kinase still bound, per cent of control (PAK2 (human)): 100% | kinase still bound, per cent of control (PIK3C2B (human)): 99% | kinase still bound, per cent of control (PKN2 (human)): 78% | kinase still bound, per cent of control (PRKG2 (human)): 90% | kinase still bound, per cent of control [6]: 100% | kinase still bound, per cent of control (ROS1 (human)): 100% | kinase still bound, per cent of control (TEC (human)): 93% | kinase still bound, per cent of control (TXK (human)): 100%
